These results are taken from patent US20120157401A1, “METHODS FOR TREATING NEUROFIBROMATOSIS” (PTC Therapeutics, Inc., priority 2009, published 2012).

pEC50: −log10 of the molar value.

The test system of one test is hypoxia-inducible endogenous VEGF expression. In words: Hypoxia-inducible endogenous VEGF expression ELISA in HeLa cells, dose-response EC50 (Table 3). It is filed as cell-based, human. Particulars: HeLa cells, hypoxic conditions (1% O2), 24-48 hours, VEGF in conditioned media; read-out: ELISA EC50. In outline:
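HeLa cells kept 24-48 h under hypoxia (1% O2, 5% CO2, nitrogen balance) with or without compound, e.g. seven concentrations; secreted VEGF in conditioned medium quantified by ELISA against a standard curve. Parallel Cell Titer Glo viability under identical conditions excludes cytotoxicity.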
(In general: In an ELISA, binding on a coated surface is turned into a signal by an enzyme label.)
One may read the pEC50 as the EC50 on a negative log10 scale, so that one unit is a factor of ten. Regarding `O=C(Oc1ccc(F)cc1)N1CCc2c([nH]c3ccc(Cl)cc23)C1c1ccc(OCCCn2ccnc2)cc1` (stereo not drawn) [Compound 994], the pEC50 is over 8.10.
For the compound `O=C(Oc1ccc(Cl)cc1)N1CCc2c([nH]c3ccc(Br)cc23)C1c1ccc(C(F)(F)F)cc1` (stereo not drawn) [Compound 570], the pEC50 is over 8.10.

Staying with this test, now noted: Homo sapiens, HeLa, read-out: ELISA EC50 μM.
The EC50 is the concentration at which the effect is half-maximal. With `O=C(Oc1ccc(F)cc1)N1CCc2c([nH]c3ccc(Cl)cc23)C1c1ccc(OCCCN2CCSCC2)cc1` (stereo not drawn) [Compound 991], the concentration for a half-maximal effect (EC50) fell in the range of 0.04 to 0.2 µM.
As for `O=C(Oc1ccc(Cl)cc1)N1CCc2c([nH]c3ccc(Cl)cc23)C1c1ccc(OCCCCCCNCCCn2ccnc2)cc1` (stereo not drawn) [Compound 789], the EC50 is 0.04 to 0.2 µM.
`O=C(Oc1ccc(Cl)cc1)N1CCc2c([nH]c3ccc(Cl)cc23)[C@@H]1c1ccc(OCCC(O)CN2CCOCC2)cc1` (stereo partly drawn) [Compound 1279]: the EC50 was under 0.008 µM.
Still for that read-out and setting: as for `O=C(Oc1ccc(Cl)cc1)N1CCc2c([nH]c3ccc(Cl)cc23)C1c1ccc(OCCCN(CCO)CCO)cc1` (stereo not drawn) [Compound 1184], the figure is under 0.008 µM; as for `CC(C)NCC(O)COc1ccc(C2c3[nH]c4ccc(Cl)cc4c3CCN2C(=O)Oc2ccc(Cl)cc2)cc1` (stereo not drawn) [Compound 977], 0.04 to 0.2 µM; as for `O=C(Oc1ccc(Cl)cc1)N1CCc2c([nH]c3ccc(Cl)cc23)[C@@H]1c1ccc(OCCCNC2CCCC2)cc1` [Compound 1235], 0.008 to 0.04 µM.
Regarding `O=C(Oc1ccc(Cl)cc1)N1CCc2c([nH]c3ccc(Cl)cc23)[C@@H]1c1ccc(OC2CCN(CCN3CCOCC3)CC2)cc1` [Compound 1682], the EC50 is under 0.008 µM.
On to `O=C(Oc1ccc(F)cc1)N1CCc2c([nH]c3ccc(Cl)cc23)C1c1ccc(OCCCCN2CCOCC2)cc1` (stereo not drawn) [Compound 738], for which the EC50 is under 0.008 µM.
In the case of `O=C(Oc1ccc(F)cc1)N1CCc2c([nH]c3ccc(Cl)cc23)C1c1ccc(OCCCCCCNCCO)cc1` (stereo not drawn) [Compound 772], the EC50 is under 0.008 µM.
Regarding `O=C(Oc1ccc(Cl)cc1)N1CCc2c([nH]c3ccc(Cl)cc23)C1c1ccc(OCCCCN2CCCCC2)cc1` (stereo not drawn) [Compound 703], the 50% effective concentration (EC50) was 0.008 to 0.04 µM.
Still for that read-out and setting: the figure for `CCN(CC)CCCOc1ccc(C2c3[nH]c4ccc(Cl)cc4c3CCN2C(=O)Oc2ccc(Cl)cc2)cc1` (stereo not drawn) [Compound 946] is 0.008 to 0.04 µM; for `O=C(Oc1ccc(F)cc1)N1CCc2c([nH]c3ccc(Cl)cc23)C1c1ccc(OCCCCCCNCCCn2ccnc2)cc1` (stereo not drawn) [Compound 779] it is 0.04 to 0.2 µM.
With `COCCN(C)CCCOc1ccc(C2c3[nH]c4ccc(Cl)cc4c3CCN2C(=O)Oc2ccc(F)cc2)cc1` (stereo not drawn) [Compound 992], the EC50 lay in the range of 0.04 to 0.2 µM.

The test is the same for the next values; noted with them: Homo sapiens; HeLa cells, hypoxic conditions (1% O2), 24-48 hours, VEGF in conditioned media; read-out: ELISA EC50.
Consider `CC(=O)Oc1ccc(C2c3[nH]c4ccc(Cl)cc4c3CCN2C(=O)Oc2ccc(Cl)cc2)cc1` (stereo not drawn) [Compound 463], for which the pEC50 was 7.40 to 8.10.
Take `O=C(Oc1ccc(Cl)cc1)N1CCc2c([nH]c3ccc(Cl)cc23)C1c1ccc(OCCn2cncn2)cc1` (stereo not drawn) [Compound 840]: the pEC50 was 7.40 to 8.10.
The same measure, in the same setting: the figure for `O=C(Oc1ccc(F)cc1)N1CCc2c([nH]c3ccc(Cl)cc23)C1c1ccc(OCC(O)Cn2ccnc2)cc1` (stereo not drawn) [Compound 922] is over 8.10; for `O=C(Oc1ccccc1Cl)N1CCc2c([nH]c3ccc(Cl)cc23)C1c1ccc(OCCCn2ccnc2)cc1` (stereo not drawn) [Compound 934] it is over 8.10.
Still for that read-out and setting: the figure for `COc1ccc(OC(=O)N2CCc3c([nH]c4ccc(Cl)cc34)C2c2ccc(OCCCn3ccnc3)cc2)cc1` (stereo not drawn) [Compound 920] is over 8.10.
As for `Cc1cnc(NCCOc2ccc(C3c4[nH]c5ccc(Cl)cc5c4CCN3C(=O)Oc3ccc(F)cc3)cc2)s1` (stereo not drawn) [#838], the pEC50 was over 8.10.
For `Cc1ccc(OC(=O)N2CCc3c([nH]c4ccc(Cl)cc34)[C@@H]2c2ccc(OCCC(O)Cn3nccn3)cc2)cc1` (stereo partly drawn) [Compound 1290], the pEC50 was over 8.10.
Turning to `COc1ccc(C2c3[nH]c4ccc(Cl)cc4c3CCN2C(=O)Oc2ccc(Cl)cc2)cc1OCCCn1cncn1` (stereo not drawn) [Compound 1090], the negative-log EC50 (pEC50) is 6.00 to 6.70.
As for `COc1ccc(OC(=O)N2CCc3c([nH]c4ccc(Cl)cc34)C2c2ccc(OCC[C@H](O)CO)cc2)cc1` (stereo partly drawn) [Compound 1181], the pEC50 was over 8.10.
Turning to `Cc1ccc(OC(=O)N2CCc3c([nH]c4ccc(Cl)cc34)[C@@H]2c2ccc(OCCC(O)Cn3ccnn3)cc2)cc1` (stereo partly drawn) [Compound 1289], the pEC50 was over 8.10.
Take `CCOC(=O)Nc1ccc(C2c3[nH]c4ccc(Cl)cc4c3CCN2C(=O)Oc2ccc(Cl)cc2)cc1` (stereo not drawn) [Compound 467]: the pEC50 was 7.40 to 8.10.
Consider `COCC(=O)NCC(O)COc1ccc(C2c3[nH]c4ccc(Cl)cc4c3CCN2C(=O)Oc2ccc(Cl)cc2)cc1` (stereo not drawn) [Compound 1225], for which the pEC50 is 7.40 to 8.10.
With `O=C(Oc1ccc(Cl)cc1)N1CCc2c([nH]c3ccc(Cl)cc23)[C@@H]1c1ccc(OCC2(CO)COCOC2)cc1` [Compound 1263], the pEC50 is over 8.10.
Same read-out and setting: as for `O=C(Oc1ccc(F)cc1)N1CCc2c([nH]c3ccc(Cl)cc23)C1c1ccc(OCCCCCCn2ccnc2)cc1` (stereo not drawn) [Compound 780], the figure is over 8.10; as for `C=CCOc1ccc([C@H]2c3[nH]c4ccc(Cl)cc4c3CCN2C(=O)Oc2ccc(Cl)cc2)cc1` [Compound 1159], over 8.10; as for `COC(=O)NCC(O)COc1ccc(C2c3[nH]c4ccc(Cl)cc4c3CCN2C(=O)Oc2ccc(Cl)cc2)cc1` (stereo not drawn) [Compound 848], over 8.10.
As to `COCCOCCOc1ccc(C2c3[nH]c4ccc(Cl)cc4c3CCN2C(=O)Oc2ccc(Cl)cc2)cc1` (stereo not drawn) [Compound 675], the negative-log EC50 (pEC50) is 7.40 to 8.10.
`CC1(C)OC[C@H](CCOc2ccc([C@H]3c4[nH]c5ccc(Cl)cc5c4CCN3C(=O)Oc3ccc(Cl)cc3)cc2)O1` [Compound 1203]: the pEC50 is over 8.10.
Take `COc1ccc(OC(=O)N2CCc3c([nH]c4ccc(Cl)cc34)C2c2ccc(S(=O)(=O)N3CCOCC3)cc2)cc1` (stereo not drawn) [Compound 455]: the negative-log EC50 (pEC50) is 7.40 to 8.10.
Same read-out and setting: the figure for `O=C(Oc1ccccc1)N1CCc2c([nH]c3ccc(Br)cc23)C1c1ccccc1` (stereo not drawn) [Compound 76] is 7.40 to 8.10; for `O=C(Oc1ccc(Cl)cc1)N1CCc2c([nH]c3ccc(Cl)cc23)C1c1ccc(OCCCn2cncn2)cc1` (stereo not drawn) [Compound 391] it is over 8.10; for `O=C(O)c1ccc(C2c3[nH]c4ccc(Br)cc4c3CCN2C(=O)Oc2ccc(Cl)cc2)cc1` (stereo not drawn) [Compound 519] it is 6.00 to 6.70.
Regarding `C=CCOc1ccc(C2c3[nH]c4ccc(Cl)cc4c3CCN2C(=O)Oc2ccc(F)cc2)cc1` (stereo not drawn) [Compound 409], the pEC50 is over 8.10.
Turning to `O=C(Oc1ccccc1Cl)N1CCc2c([nH]c3ccc(Cl)cc23)C1c1ccc(Cl)cc1` (stereo not drawn) [Compound 589], the pEC50 is 6.70 to 7.40.
Turning to `COc1cc(C2c3[nH]c4ccc(Cl)cc4c3CCN2C(=O)Oc2ccc(C)cc2)ccc1OCCCn1nccn1` (stereo not drawn) [Compound 1194], the negative logarithm of the EC50 (pEC50) was over 8.10.
Consider `O=C(Oc1ccccc1)N1CCc2c([nH]c3ccc(Cl)cc23)C1c1ccc(OCCCn2cncn2)cc1` (stereo not drawn) [Compound 891], for which the pEC50 is over 8.10.

The test is the same for the next values; noted with them: Homo sapiens; HeLa cells, hypoxic conditions (1% O2), VEGF ELISA of conditioned media; read-out: ELISA EC50.
Turning to `N#CCOc1ccc([C@H]2c3[nH]c4ccc(Cl)cc4c3CCN2C(=O)Oc2ccc(Cl)cc2)cc1` [Compound 1669], the pEC50 is over 8.10.
On the same count and under the same terms, the figure for `COCCOC(=O)NCC(O)CCOc1ccc([C@H]2c3[nH]c4ccc(Cl)cc4c3CCN2C(=O)Oc2ccc(C)cc2)cc1` (stereo partly drawn) [Compound 1645] is over 8.10; for `O=C(Oc1ccc(Cl)cc1)N1CCc2c([nH]c3ccc(Cl)cc23)C1c1ccc(OC2COC(c3ccccc3)OC2)cc1` (stereo not drawn) [Compound 1569] it is over 8.10; for `CC1(C)OC[C@H](CCOc2ccc([C@@H]3c4[nH]c5ccc(Cl)cc5c4CCN3C(=O)Oc3ccc(Cl)cc3)cc2)O1` [Compound 1331] it is under 6.00.
For `CC(=O)OCC1OC(n2cc(COc3ccc([C@H]4c5[nH]c6ccc(Cl)cc6c5CCN4C(=O)Oc4ccc(Cl)cc4)cc3)nn2)C(OC(C)=O)C(OC(C)=O)C1OC(C)=O` (stereo partly drawn) [Compound 1675], the negative logarithm of the EC50 (pEC50) is 6.70 to 7.40.
As to `CCSCCCOc1ccc(C2c3[nH]c4ccc(Cl)cc4c3CCN2C(=O)Oc2ccc(Cl)cc2)cc1` (stereo not drawn) [Compound 1552], the pEC50 is over 8.10.
As for `Cc1ccc(OC(=O)N2CCc3c([nH]c4ccc(Cl)cc34)[C@@H]2c2ccc(OCCC(O)CNC(=O)C(C)C)cc2)cc1` (stereo partly drawn) [Compound 1640], the pEC50 was over 8.10.

A further test has as its system HT1080 cells. In words: Cell cycle analysis by propidium iodide flow cytometry in HT1080 cells (percent cells in S-phase, Table 24). It is filed as cell-based, human. Particulars: HT1080 cells, 100 nM, 18 hours, normoxic; DMSO control […]. As for the experimental part: Experimental Design. […] After treatment, cells were trypsinized, and stained with propidium iodide (PI) dye to measure DNA content of individual cells by flow cytometry. Output comprised histograms showing relative DNA content in 10,000 cells.
While compounds which cause greater than 20% of the cells to accumulate in S-phase at 100 nM are considered active, a larger percentage of cells may be accumulated in S-phase at lower doses depending on the Compound, as shown in FIG. 12 for example.
(Flow cytometry measures light scatter and fluorescence of single cells or particles in a stream.)
In the case of `O=C(Oc1ccc(Cl)cc1)N1CCc2c([nH]c3ccc(Cl)cc23)[C@@H]1c1ccc(OCC[C@H](O)CO)cc1` [drawing 529], the “% Cells In S-Phase” value is 20.0%.
Take `COc1ccc(OC(=O)N2CCc3c([nH]c4ccc(Br)cc34)[C@@H]2c2ccc(Cl)cc2)cc1` [drawing 527]: the “% Cells In S-Phase” value amounted to 26.4%.
Turning to `C=CCOc1ccc([C@@H]2c3[nH]c4ccc(Cl)cc4c3CCN2C(=O)Oc2ccc(Cl)cc2)cc1`, the “% Cells In S-Phase” value amounted to 17.9%.
`O=C(Oc1ccc(Cl)cc1)N1CCc2c([nH]c3ccc(Cl)cc23)C1c1ccc(OCCN2CCOCC2)cc1` (stereo not drawn) [drawing 535]: the “% Cells In S-Phase” value stood at 16.4%.
For `COc1ccc([C@H]2c3[nH]c4ccc(Cl)cc4c3CCN2C(=O)Oc2ccc(Cl)cc2)cc1` [drawing 526], the “% Cells In S-Phase” value amounted to 26.1%.
The same measure, in the same setting: as for `O=C(Oc1ccc(F)cc1)N1CCc2c([nH]c3ccc(Cl)cc23)[C@@H]1c1ccc(OCC[C@H](O)CO)cc1` [drawing 537], the figure is 20.6%.
Consider `C=CCOc1ccc([C@H]2c3[nH]c4ccc(Cl)cc4c3CCN2C(=O)Oc2ccc(Cl)cc2)cc1` [drawing 533], for which the “% Cells In S-Phase” value is reported as 17.2%.
In the case of `COc1ccc(OC(=O)N2CCc3c([nH]c4ccc(Br)cc34)[C@H]2c2ccc(Cl)cc2)cc1`, the “% Cells In S-Phase” value was found to be 16.5%.
With `COc1ccc(C2c3[nH]c4ccc(Cl)cc4c3CCN2C(=O)Oc2ccc(Cl)cc2)cc1` (stereo not drawn), the “% Cells In S-Phase” value turned out to be 15.3%.
